{"source": "paper PMC3034713", "about": "“Targeting Vascular NADPH Oxidase 1 Blocks Tumor Angiogenesis through a PPARα Mediated Mechanism” (PLoS ONE, 2011)", "key": {"NOX1": {"target": "T1, NOX1 (Homo sapiens, UniProt Q9Y5S8)", "T1 construct": "expressed in transfected cells", "T1 sequence (Q9Y5S8 1-564)": "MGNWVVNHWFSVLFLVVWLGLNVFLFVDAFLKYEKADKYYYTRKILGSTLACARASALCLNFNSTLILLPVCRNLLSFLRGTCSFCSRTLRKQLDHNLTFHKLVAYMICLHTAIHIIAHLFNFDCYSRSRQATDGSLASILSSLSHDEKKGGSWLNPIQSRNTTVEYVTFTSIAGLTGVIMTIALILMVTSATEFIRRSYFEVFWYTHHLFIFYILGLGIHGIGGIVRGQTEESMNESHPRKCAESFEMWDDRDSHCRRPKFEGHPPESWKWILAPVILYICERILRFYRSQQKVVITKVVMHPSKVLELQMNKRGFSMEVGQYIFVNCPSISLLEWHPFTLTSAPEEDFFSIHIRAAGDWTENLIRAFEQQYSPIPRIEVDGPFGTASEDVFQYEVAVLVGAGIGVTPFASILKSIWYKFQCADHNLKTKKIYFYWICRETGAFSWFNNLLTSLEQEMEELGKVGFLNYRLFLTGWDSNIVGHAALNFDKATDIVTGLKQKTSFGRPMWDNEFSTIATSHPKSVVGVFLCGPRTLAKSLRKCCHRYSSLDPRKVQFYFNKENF", "T1 sequence (P13498 2-195 partner limits assumed)": "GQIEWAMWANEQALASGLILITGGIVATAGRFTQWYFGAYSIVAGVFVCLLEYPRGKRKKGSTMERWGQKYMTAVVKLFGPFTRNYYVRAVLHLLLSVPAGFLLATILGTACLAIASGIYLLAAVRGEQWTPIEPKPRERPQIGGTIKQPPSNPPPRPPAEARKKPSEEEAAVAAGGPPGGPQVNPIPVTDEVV", "assay": "NOX inhibition in cell free assay, membranes from cells overexpressing NOX1 (Amplex Red ROS)", "type": "biochemical", "method": "(§1) Membranes from NOX2 expressing PMN cells or from cells overexpressing NOX1 or NOX4 were prepared as previously described. After resuspension in sonication buffer (11% sucrose, 120 mM NaCl, 1 mM EGTA in PBS, pH 7.4 for NOX4-expressing cells) or in relax buffer (10 mM Pipes, 3 mM NaCl, 3.5 mM MgCl2, 0.1 M KCl, pH 7.4), cells were broken by sonication and centrifuged (200 g, 10 min). The supernatant was loaded onto a 17/40% (w/v) discontinuous sucrose gradient and centrifuged (150,000 g for 30 min). Membrane fractions were collected and stored at −80°C. ROS production measurements of membranes expressing different NOX subunits was determined as previously described using the Amplex Red method (Invitrogen)."}, "NOX2": {"target": "T2, NOX2 (Homo sapiens, UniProt P04839)", "T2 construct": "Membranes from NOX2 expressing PMN cells; endogenous in cells; host or cells: PMN cells", "T2 sequence (P04839 2-570 limits assumed)": "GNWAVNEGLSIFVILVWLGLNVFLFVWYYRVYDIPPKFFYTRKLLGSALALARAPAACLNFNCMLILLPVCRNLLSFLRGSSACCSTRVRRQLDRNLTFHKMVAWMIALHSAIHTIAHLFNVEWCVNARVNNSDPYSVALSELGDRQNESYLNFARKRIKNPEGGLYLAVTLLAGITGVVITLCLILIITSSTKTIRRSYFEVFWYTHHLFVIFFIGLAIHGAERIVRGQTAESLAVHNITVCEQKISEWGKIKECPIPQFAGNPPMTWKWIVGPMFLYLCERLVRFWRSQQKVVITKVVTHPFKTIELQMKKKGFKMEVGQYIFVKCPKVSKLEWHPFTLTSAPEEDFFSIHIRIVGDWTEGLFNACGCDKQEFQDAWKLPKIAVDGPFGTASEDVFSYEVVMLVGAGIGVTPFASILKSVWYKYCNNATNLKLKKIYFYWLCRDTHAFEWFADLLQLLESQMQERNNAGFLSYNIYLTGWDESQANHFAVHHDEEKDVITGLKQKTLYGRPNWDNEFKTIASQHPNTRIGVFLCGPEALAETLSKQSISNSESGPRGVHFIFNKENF", "T2 sequence (P13498 2-195 partner limits assumed)": "T1 sequence (P13498 2-195 partner limits assumed)", "assay": "NOX inhibition in cell free assay, membranes from NOX2 expressing PMN cells (Amplex Red ROS)", "type": "biochemical", "method": "as §1"}, "NOX4": {"target": "T3, NOX4 (Homo sapiens, UniProt Q9NPH5)", "T3 construct": "expressed in transfected cells", "T3 sequence (Q9NPH5 whole entry, species assumed, one chain of several)": "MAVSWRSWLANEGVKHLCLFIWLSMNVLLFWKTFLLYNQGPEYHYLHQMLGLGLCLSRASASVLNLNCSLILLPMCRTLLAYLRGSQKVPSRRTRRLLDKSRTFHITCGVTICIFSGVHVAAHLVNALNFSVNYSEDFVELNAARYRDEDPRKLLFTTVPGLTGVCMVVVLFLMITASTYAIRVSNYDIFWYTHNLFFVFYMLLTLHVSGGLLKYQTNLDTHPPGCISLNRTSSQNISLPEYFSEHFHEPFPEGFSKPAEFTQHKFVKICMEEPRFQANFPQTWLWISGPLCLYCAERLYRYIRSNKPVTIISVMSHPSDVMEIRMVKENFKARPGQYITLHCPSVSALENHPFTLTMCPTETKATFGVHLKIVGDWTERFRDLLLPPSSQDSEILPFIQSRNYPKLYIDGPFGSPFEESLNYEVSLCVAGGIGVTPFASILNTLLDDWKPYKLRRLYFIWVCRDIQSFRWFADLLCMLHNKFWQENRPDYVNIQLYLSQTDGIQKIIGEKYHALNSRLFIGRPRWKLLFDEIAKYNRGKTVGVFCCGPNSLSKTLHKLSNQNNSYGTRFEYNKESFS", "assay": "NOX inhibition in cell free assay, membranes from cells overexpressing NOX4 (Amplex Red ROS)", "type": "biochemical", "details": "Figure S2", "method": "as §1"}, "xanthine oxidase [1]": {"target": "T4, xanthine oxidase (Homo sapiens, UniProt P47989)", "T4 sequence (P47989 whole entry, species assumed)": "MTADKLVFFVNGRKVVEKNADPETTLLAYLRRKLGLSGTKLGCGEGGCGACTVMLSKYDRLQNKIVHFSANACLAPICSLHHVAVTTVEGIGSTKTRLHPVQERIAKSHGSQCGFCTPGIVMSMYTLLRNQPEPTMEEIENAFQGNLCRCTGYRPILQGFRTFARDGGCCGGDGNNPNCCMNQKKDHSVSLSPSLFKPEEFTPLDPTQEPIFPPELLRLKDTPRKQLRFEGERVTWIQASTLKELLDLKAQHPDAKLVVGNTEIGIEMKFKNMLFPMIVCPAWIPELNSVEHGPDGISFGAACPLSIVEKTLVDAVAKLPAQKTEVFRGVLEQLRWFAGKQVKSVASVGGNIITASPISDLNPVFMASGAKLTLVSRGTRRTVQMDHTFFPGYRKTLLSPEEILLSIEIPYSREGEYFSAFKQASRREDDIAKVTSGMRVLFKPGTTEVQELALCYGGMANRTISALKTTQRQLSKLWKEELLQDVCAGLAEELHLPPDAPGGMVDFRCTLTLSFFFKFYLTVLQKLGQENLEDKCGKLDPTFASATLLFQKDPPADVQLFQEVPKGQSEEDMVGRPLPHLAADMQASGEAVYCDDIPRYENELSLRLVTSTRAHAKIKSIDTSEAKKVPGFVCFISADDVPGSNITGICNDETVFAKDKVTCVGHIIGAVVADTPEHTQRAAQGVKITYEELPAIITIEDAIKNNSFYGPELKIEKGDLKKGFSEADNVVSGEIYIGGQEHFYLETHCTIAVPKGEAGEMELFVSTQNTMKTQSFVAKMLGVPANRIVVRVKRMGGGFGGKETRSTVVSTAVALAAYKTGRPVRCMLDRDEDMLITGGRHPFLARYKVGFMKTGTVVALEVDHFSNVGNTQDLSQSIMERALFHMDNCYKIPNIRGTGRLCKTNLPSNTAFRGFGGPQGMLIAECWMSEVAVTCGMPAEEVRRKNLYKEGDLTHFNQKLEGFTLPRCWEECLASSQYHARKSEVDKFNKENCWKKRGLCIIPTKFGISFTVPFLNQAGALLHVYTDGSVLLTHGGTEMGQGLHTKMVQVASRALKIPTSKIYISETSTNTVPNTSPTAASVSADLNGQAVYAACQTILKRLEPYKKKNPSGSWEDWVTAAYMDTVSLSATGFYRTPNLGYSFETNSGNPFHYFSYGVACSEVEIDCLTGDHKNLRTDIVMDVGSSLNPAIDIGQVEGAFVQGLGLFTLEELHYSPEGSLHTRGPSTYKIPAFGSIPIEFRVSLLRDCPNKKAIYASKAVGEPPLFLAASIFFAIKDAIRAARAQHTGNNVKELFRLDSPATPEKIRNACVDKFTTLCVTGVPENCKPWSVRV", "assay": "Xanthine oxidase inhibition, concentration-response", "type": "biochemical"}, "cNos": {"tested_on": "cNos", "assay": "Pharmacological profiling (Cerep), Table S1", "type": "biochemical"}, "MLEC": {"tested_on": "MLEC", "assay": "Endothelial cell sprouting assay (tube-like structure formation, 3D culture)", "type": "cell-based, mouse", "details": "MLEC, 10 µM", "method": "Sprouting assay was performed as described previously. Briefly, endothelial cells were plated in 96 well plates at 8,000 cells per well in a 3D fibrin gel. Above the gel, 10% FCS containing DMEM was complemented with 200 KIU/ml of Aprotinin (Sigma). Length of branches was evaluated using the Metamorph program. Results are expressed in mm of skeleton length/number of cells."}, "LLC1 tumors": {"tested_on": "LLC1 tumors", "assay": "Tumor growth assay, LLC1 injected subcutaneously", "type": "in vivo, mice", "details": "for tumor vascularization (PECAM-1), vehicle = 100%: 40 mg/kg/day oral for 8 days", "method": "5. 10^5 of LLC1 or B16F0 were injected subcutaneously on the back of mice. […] Frozen sections of tumors were stained with anti-PECAM-1 antibody (rat monoclonal, [74])."}, "LLC1 and B16F0 cells": {"tested_on": "LLC1 and B16F0 cells", "assay": "Tumor cell proliferation (EdU incorporation, propidium iodide)", "type": "cell-based", "details": "10 μM, 24h", "method": "(§2) Supplementary file pone.0014665.s008.tif: Figure S7 Effect of GKT 136901 on tumor cells. a. LLC1 and B16F0 cell proliferation was measured by EdU incorporation and propidium iodide staining of DNA content, 24h after incubation with 10 μM of GKT136901. b. LLC1 apoptosis was measured by AnnexinV/PI staining after 24h of incubation with 10 μM of GKT136901. c. ROS levels produced by LLC1 are inhibited by GKT136901. ROS production was quantified by DHE substrate 1h after incubation with 10 μM of the inhibitor. *** p<0.001 (student t-test). (6.11 MB TIF) Click here for additional data file."}, "LLC1": {"tested_on": "LLC1", "assay": "Tumor cell apoptosis (AnnexinV/PI staining)", "type": "cell-based", "details": "10 μM, 24h", "method": "as §2"}, "xanthine oxidase [2]": {"target": "T4, xanthine oxidase", "assay": "Pharmacological profiling (Cerep), Table S1"}, "MPO": {"target": "MPO (Homo sapiens, UniProt P05164)", "sequence (P05164 49-745, species assumed)": "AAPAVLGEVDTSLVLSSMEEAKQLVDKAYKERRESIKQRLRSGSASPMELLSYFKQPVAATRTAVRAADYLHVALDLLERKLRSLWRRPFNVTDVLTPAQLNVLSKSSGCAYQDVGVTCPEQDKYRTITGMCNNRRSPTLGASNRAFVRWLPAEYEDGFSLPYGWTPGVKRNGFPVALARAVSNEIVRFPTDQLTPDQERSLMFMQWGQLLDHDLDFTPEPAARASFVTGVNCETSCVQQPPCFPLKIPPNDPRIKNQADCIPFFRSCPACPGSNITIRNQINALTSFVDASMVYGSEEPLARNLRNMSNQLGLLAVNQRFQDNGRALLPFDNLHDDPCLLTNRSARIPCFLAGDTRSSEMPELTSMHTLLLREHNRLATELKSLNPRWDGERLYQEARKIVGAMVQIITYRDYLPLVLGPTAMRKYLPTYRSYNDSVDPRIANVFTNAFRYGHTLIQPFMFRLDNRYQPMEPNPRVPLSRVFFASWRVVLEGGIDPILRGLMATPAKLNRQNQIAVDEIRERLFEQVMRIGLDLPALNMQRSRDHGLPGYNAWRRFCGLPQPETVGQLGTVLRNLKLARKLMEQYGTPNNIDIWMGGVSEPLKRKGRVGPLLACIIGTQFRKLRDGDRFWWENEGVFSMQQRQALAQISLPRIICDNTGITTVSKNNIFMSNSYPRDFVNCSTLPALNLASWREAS", "assay": "Pharmacological profiling (Cerep), Table S1"}, "MAO-B": {"target": "MAO-B (Homo sapiens, UniProt P27338)", "sequence (P27338 whole entry, species assumed)": "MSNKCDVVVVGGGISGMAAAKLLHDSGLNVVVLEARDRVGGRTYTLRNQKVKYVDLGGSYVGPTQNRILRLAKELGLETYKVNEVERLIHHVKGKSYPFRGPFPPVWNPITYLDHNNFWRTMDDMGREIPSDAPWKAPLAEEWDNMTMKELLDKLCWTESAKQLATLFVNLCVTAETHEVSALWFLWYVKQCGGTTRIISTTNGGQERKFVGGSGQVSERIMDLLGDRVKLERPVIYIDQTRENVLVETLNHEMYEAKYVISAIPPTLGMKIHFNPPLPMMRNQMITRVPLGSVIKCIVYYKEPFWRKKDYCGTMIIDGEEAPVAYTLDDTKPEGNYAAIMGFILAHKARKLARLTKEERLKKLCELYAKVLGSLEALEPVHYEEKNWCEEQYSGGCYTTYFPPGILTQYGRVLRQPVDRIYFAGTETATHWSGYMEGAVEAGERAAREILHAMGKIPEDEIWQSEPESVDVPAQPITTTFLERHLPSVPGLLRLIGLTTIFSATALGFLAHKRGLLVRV", "assay": "Pharmacological profiling (Cerep), Table S1"}}, "data": [{"smiles": "Cc1c2c(=O)n(-c3ccccc3Cl)[nH]c2cc(=O)n1Cc1ccccn1", "note": "[GKT136901]", "values": [{"measurement": "extent of inhibition of oxidase activity of NOX1", "setting": "NOX1; Figure S2", "result": "completely inhibits"}, {"measurement": "Ki", "setting": "NOX1; cell-free, membranes from NOX1 over-expressing cells", "result": "160 ± 10", "unit": "nM"}, {"measurement": "potency on NOX2 relative to NOX1 and NOX4", "setting": "NOX2", "result": "ten-fold lower"}, {"measurement": "extent of inhibition of oxidase activity of NOX2", "setting": "NOX2; Figure S2", "result": "only a partial effect"}, {"measurement": "Ki", "setting": "NOX2; cell-free, membranes from NOX2 expressing PMN cells", "result": "1530 ± 90", "unit": "nM"}, {"measurement": "extent of inhibition of oxidase activity of NOX4", "setting": "NOX4", "result": "completely inhibits"}, {"measurement": "Ki", "setting": "xanthine oxidase [1]", "result": "> 100000", "unit": "nM"}, {"measurement": "% Inhibition at 10 µM", "setting": "cNos", "result": 0, "unit": "%"}, {"measurement": "tube formation", "setting": "MLEC", "result": "inhibition"}, {"measurement": "reduction of vascular area (PECAM-1) compared to vehicle", "setting": "LLC1 tumors; LLC1, 40 mg/kg daily oral from one day after injection", "result": "59% ±9.3"}, {"measurement": "tumor size smaller compared to vehicle-treated mice", "setting": "LLC1 tumors; LLC1, 40 mg/kg daily oral from one day after injection, one week of treatment", "result": "34% ±5.8"}, {"measurement": "tumor vascularization (PECAM-1), vehicle = 100%", "setting": "LLC1 tumors; LLC1 in PPARα deficient mice", "result": "129% ±23"}, {"measurement": "tumor vascularization (PECAM-1), vehicle = 100%", "setting": "LLC1 tumors; LLC1 in WT mice", "result": "65% ±13"}, {"measurement": "reduction of tumor vascularization (PECAM-1), therapeutic treatment", "setting": "LLC1 tumors; established LLC1 tumors, start 8 days after implantation, day 12", "result": "36% ±16"}, {"measurement": "delay of tumor progression (tumor volume), therapeutic treatment", "setting": "LLC1 tumors; established LLC1 tumors, start 8 days after implantation, GKT136901 40 mg/kg per os, DC101 0.8 mg i.p. every 2 days", "result": "35% ±5.7"}, {"measurement": "tumor cell proliferation in vitro", "setting": "LLC1 and B16F0 cells", "result": "did not interfere"}, {"measurement": "tumor cell apoptosis in vitro", "setting": "LLC1", "result": "did not interfere"}, {"measurement": "% Inhibition at 10 µM", "setting": "xanthine oxidase [2]", "result": 5, "unit": "%"}, {"measurement": "% Inhibition at 10 µM", "setting": "MPO", "result": 0, "unit": "%"}, {"measurement": "% Inhibition at 10 µM", "setting": "MAO-B", "result": 0, "unit": "%"}]}]}
